Data taken from patent US8722849B2, “Polypeptides” (Novo Nordisk A/S, priority 2011, dated 2014).
In brackets after ≈: the same amount, converted by molar mass. Read-outs that look alike come from different tables or passages of the source. Starred links: 1 amine or outer side, 2 acyl side, 3 side chain; linkers in the order of their positions; H or OH if unused. Positions of bridges follow the written chain, without caps; N, C: chain ends. Residues, ends and D or L forms follow the SMILES beside them. Groups on a side chain read outwards from the residue. *: point of attachment. C18 diacid = O=C(O)CCCCCCCCCCCCCCCCC(=O)*; γGlu = O=C(O)[C@H](CCC(=O)[*:2])N[*:1]; AEEA = NCCOCCOCC(=O)O

Assays:
[1] = Assay (IV) determination of solubility; assay type: physicochemical
Method in brief: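 Eight 100 mM buffers (glycylglycine pH 3.0–5.0, bistrispropane pH 6.0–8.0) each received an equal volume of polypeptide dissolved in water at ~500 nmol/ml. Soluble polypeptide was measured by HPLC following 18 hours at room temperature and centrifugation.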

[2] = molecular target: T1, human amylin receptor (amylin 3(a) receptor: human calcitonin receptor + RAMP-3) (Homo sapiens, UniProt O60896+P30988); experiment: Assay (II)a functional CRE-luciferase assay, human amylin receptor; assay type: cell-based; conditions: Table 2; BHK amylin 3(a)-receptor/CRE-luc cells
T1 construct: expressed in transfected cells; host or cells: BHK570
T1 sequence (P30988 25-474): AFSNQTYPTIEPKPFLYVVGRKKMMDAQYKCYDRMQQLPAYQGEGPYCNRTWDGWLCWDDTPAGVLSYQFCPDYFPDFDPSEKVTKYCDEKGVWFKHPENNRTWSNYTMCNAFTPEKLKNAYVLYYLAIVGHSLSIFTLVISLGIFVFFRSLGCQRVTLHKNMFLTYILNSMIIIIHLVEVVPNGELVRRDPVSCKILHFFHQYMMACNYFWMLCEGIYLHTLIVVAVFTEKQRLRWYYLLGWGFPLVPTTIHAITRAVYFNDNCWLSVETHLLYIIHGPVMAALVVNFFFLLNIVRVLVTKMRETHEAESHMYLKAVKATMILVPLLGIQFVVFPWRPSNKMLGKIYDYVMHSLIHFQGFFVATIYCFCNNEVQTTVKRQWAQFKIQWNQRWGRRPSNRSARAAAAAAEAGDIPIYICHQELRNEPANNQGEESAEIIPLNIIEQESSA
T1 sequence (O60896 24-148 partner): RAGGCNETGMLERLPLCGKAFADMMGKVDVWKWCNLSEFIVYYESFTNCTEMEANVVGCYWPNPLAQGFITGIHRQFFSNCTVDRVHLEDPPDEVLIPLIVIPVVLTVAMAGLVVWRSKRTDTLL

[3] = molecular target: T2, human calcitonin receptor (Homo sapiens, UniProt P30988); experiment: Assay (II)a functional CRE-luciferase assay, human calcitonin receptor; assay type: cell-based; conditions: Table 7; human calcitonin (CTa) receptor
T2 construct: expressed in transfected cells; host or cells: BHK570
T2 sequence (P30988 25-474): T1 sequence (P30988 25-474)

[4] = Assay (III) ThT fibrillation assay for physical stability; assay type: physicochemical; conditions: ThT fibrillation assay
Method in brief: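 Freshly prepared formulations, pH-adjusted, with 1 μM ThT; four or eight replicates incubated at 37 °C under 960 rpm orbital shaking. Fluorescence (ex 444/em 485 nm) read every 20 min; […]. Peptide concentration measured by RP-HPLC before and after the run.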

[5] = bistrispropane buffer, pH 6, pH 6.0, read-out: Solubility pH 6.0
[6] = bistrispropane buffer, pH 6.5, pH 6.5, read-out: Solubility pH 6.5
[7] = bistrispropane buffer, pH 7, pH 7.0, read-out: Solubility pH 7.0
[8] = bistrispropane buffer, pH 7.5, pH 7.5, read-out: Solubility pH 7.5
[9] = bistrispropane buffer, pH 8, pH 8.0, read-out: Solubility pH 8.0
[10] = glycylglycine buffer, pH 3, pH 3.0, read-out: Solubility pH 3.0
[11] = glycylglycine buffer, pH 4, pH 4.0, 18 hours at room temperature, Table 2, read-out: Solubility pH 4.0
[12] = glycylglycine buffer, pH 4, pH 4.0, read-out: Solubility pH 4.0
[13] = glycylglycine buffer, pH 5, pH 5.0, read-out: Solubility pH 5.0

| Structure (SMILES) | solubility at 18 h [1, 5] [µM] | solubility at 18 h [1, 6] [µM] | solubility at 18 h [1, 7] [µM] | solubility at 18 h [1, 8] [µM] | solubility at 18 h [1, 9] [µM] | solubility at 18 h [1, 10] [µM] | solubility at 18 h [1, 11] [µM] | solubility at 18 h [1, 12] [µM] | solubility at 18 h [1, 13] [µM] | EC50 [2] [nM] | EC50 [3] [nM] | ThT pH 4.0 lag time [4] [h] | ThT pH 4.0 lag time (h) [4] [h] | solubility at 18 h ([1]; bistrispropane buffer, pH 7, pH 7.0, 18 hours at room temperature, Table 3, read-out: Solubility pH 7.0) [µM] |
| --- | --- | --- | --- | --- | --- | --- | --- | --- | --- | --- | --- | --- | --- | --- |
| CC[C@H](C)[C@H](NC(=O)[C@@H]1CCCN1C(=O)CNC(=O)[C@H](Cc1ccccc1)NC(=O)[C@H](CC(N)=O)NC(=O)[C@H](CC(N)=O)NC(=O)[C@H](CO)NC(=O)[C@H](CO)NC(=O)[C@H](Cc1c[nH]cn1)NC(=O)[C@H](Cc1c[nH]cn1)NC(=O)[C@H](CC(C)C)NC(=O)[C@H](Cc1ccccc1)NC(=O)[C@H](CCC(=O)O)NC(=O)[C@H](C)NC(=O)[C@H](CC(C)C)NC(=O)[C@H](CCCNC(=N)N)NC(=O)[C@H](CCC(N)=O)NC(=O)[C@@H](NC(=O)[C@H](C)NC(=O)[C@@H]1CSSC[C@H](NC(=O)[C@H](CCCCN)NC(=O)[C@H](Cc2c[nH]cn2)NC(=O)CC[C@H](NC(=O)CCCCCCCCCCCCCCCCC(=O)O)C(=O)O)C(=O)N[C@@H](CC(N)=O)C(=O)N[C@@H]([C@@H](C)O)C(=O)N[C@@H](C)C(=O)N[C@@H]([C@@H](C)O)C(=O)N1)[C@@H](C)O)C(=O)N[C@@H](CC(C)C)C(=O)N1CCC[C@H]1C(=O)N1CCC[C@H]1C(=O)N[C@H](C(=O)N[C@@H](CC(N)=O)C(=O)N[C@H](C(=O)NCC(=O)N[C@@H](CO)C(=O)N[C@@H](Cc1c[nH]cn1)C(=O)N[C@H](C(=O)N[C@@H](Cc1ccc(O)cc1)C(N)=O)[C@@H](C)O)C(C)C)[C@@H](C)O [Example 70, N-alpha-[(S)-4-Carboxy-4-(17-carboxyheptadecanoylamino)butyryl]-His-[Glu14,His17,His35]-pramlintide] ({C18 diacid-γGlu}-HKCNTATCATQRLAEFLHHSSNNFGPILPPTNVGSHTY-NH2; disulfide 3-8 (inferred); C-terminus assumed) | > 200 | 69 (≈ 317 µg/mL) | 32 (≈ 147 µg/mL) | 52 (≈ 239 µg/mL) | 89 (≈ 408 µg/mL) | > 200 | > 200 | > 200 | > 200 | 0.0585 | 0.099 | >45 | >45 | – |
| CC[C@H](C)[C@H](NC(=O)[C@H](CCCCNC(=O)COCCOCCNC(=O)COCCOCCNC(=O)CC[C@H](NC(=O)CCCCCCCCCCCCCCCCC(=O)O)C(=O)O)NC(=O)CNC(=O)[C@H](Cc1ccccc1)NC(=O)[C@H](CC(N)=O)NC(=O)[C@H](CO)NC(=O)[C@H](CO)NC(=O)[C@H](CO)NC(=O)[C@H](Cc1c[nH]cn1)NC(=O)[C@@H](NC(=O)[C@H](CC(C)C)NC(=O)[C@H](Cc1ccccc1)NC(=O)[C@H](CCC(=O)O)NC(=O)[C@H](C)NC(=O)[C@H](CC(C)C)NC(=O)[C@H](CCCNC(=N)N)NC(=O)[C@H](CCC(N)=O)NC(=O)[C@@H](NC(=O)[C@H](C)NC(=O)[C@@H]1CSSC[C@H](NC(=O)[C@@H](N)CCCCN)C(=O)N[C@@H](CC(N)=O)C(=O)N[C@@H]([C@@H](C)O)C(=O)N[C@@H](C)C(=O)N[C@@H]([C@@H](C)O)C(=O)N1)[C@@H](C)O)C(C)C)C(=O)N[C@@H](CC(C)C)C(=O)N1CCC[C@H]1C(=O)N1CCC[C@H]1C(=O)N[C@H](C(=O)N[C@@H](CC(N)=O)C(=O)N[C@H](C(=O)NCC(=O)N[C@@H](CO)C(=O)N[C@@H](CC(N)=O)C(=O)N[C@H](C(=O)N[C@@H](Cc1ccc(O)cc1)C(N)=O)[C@@H](C)O)C(C)C)[C@@H](C)O [Example 72, N-epsilon25-[2-(2-{2-[2-(2-{2-[(S)-4-Carboxy-4-(17-carboxyheptadecanoylamino)butyrylamino]ethoxy}ethoxy)acetylamino]ethoxy}ethoxy)acetyl]-[Glu14,Ser21,Lys25]-pramlintide] (H-KCNTATCATQRLAEFLVHSSSNFGK([AEEA-AEEA-γGlu-C18 diacid])ILPPTNVGSNTY-NH2; disulfide 2-7 (inferred); N-terminus assumed) | 168 (≈ 787 µg/mL) | 130 (≈ 609 µg/mL) | 126 (≈ 590 µg/mL) | 165 (≈ 773 µg/mL) | > 200 | > 200 | > 200 | > 200 | > 200 | 0.089 | 0.101 | – | 10.3 | 126 (≈ 590 µg/mL) |
